Reference: patent US20150071856A1, “ANTAGONISTIC PEPTIDES FOR FRIZZLED-1 AND FRIZZLED-2” (Universiteit Maastricht, priority 2013, published 2015)
Positions of bridges follow the written chain, without caps; N, C: chain ends. Residues, ends and D or L forms follow the SMILES beside them. rhodamine = not defined here

What was measured:
[1] = tested on: canonical Wnt signaling; assay: Activity assay (Example 1): TOPflash luciferase reporter in HEK (HEK293-superTOPflash) cells, receptor not specified; assay type: cell-based, human; details: for effect of the peptide by itself on luciferase activity: without Wnt3a; for activity on the frizzled receptor: antagonist or agonist: model of Example 1
Experimental: (§1) Human embryonic kidney (HEK) cells were used for screening. These cells have a luciferase construct stably transfected into the genome (see FIG. 2A), such that when the frizzled receptor is activated and β-catenin is increased, the luciferase is activated by transcription and light can be measured.
(§2) The peptides were tested by transfecting the frizzled-1 or the frizzled-2 receptor and addition of UM206(S-S) to the cell culture. For testing antagonistic activity, UM206 was added and the natural ligand Wnt3a was added, which is a natural stimulus for the canonical pathway.
Transfection and Luciferase Measurement:
Plate cells in 12-well plates
(§3) Day 2: Transfection 12-Well Plates • heat Fugene6 and DNA 15 minutes at RT • 2 ml serum-free medium in tube • add 3 μl fugene • add 2 μg DNA • incubate 30 minutes at RT • wash with PBS • add 50 μl transfectiemix • add 1 ml antibiotica-free medium
(§4) Day 3: Add Conditioned Medium or UM206
(§5) Day 4: Luciferase Activity Measurements • remove medium • wash with PBS • add 500 μl ⅕ lysisbuffer • shake for 60 minutes • centrifuge in tube • 20 μl lysaat and 50 μl luciferase in new tube for measurement • vortex • measure
(§6) Three areas of high homology that contained two cysteines are underlined (UM207), (UM208) and (UM206). In FIGS. 9B through 9D, the inhibitory effect of these three peptides on Wnt3a-induced luciferase activity in HEK293-superTOPflash is shown. […] Again, the peptides by themselves had no effect on the luciferase activity.
(§7) The cell lines were cultured in 75 cm^2 culture flasks (Corning, Schiphol, the Netherlands) in Dulbeco's modified essential medium with L-glutamine (2 mM), 10% fetal calf serum (Invitrogen, Merelbeke, Belgium), and 1% gentamycin (Sigma-Aldrich, Zwijndrecht, The Netherlands). Before starting the experiment, the cell lines were treated with plasmocin 25 μg/ml (Invivogen, Toulose, France) and tested with a mycoalert mycoplasma detection kit (Lonza, Rockland Me., USA). Cells were transiently transfected with Fugene6 (Roche, Indianapolis Ind., USA) with plasmid DNA, pcDNA3.1/hygro (Invitrogen) with frizzled-1/2/4 or Wnts 3a-5a or with pcDNA3.0 (Invitrogen) containing the β-catenin or frizzled-5 sequence. After transfection, the cells were cultured for 24 hours in conditioned medium, collected from the cultured L-cells, L-cells with Wnt3a or 5a (Invitrogen). At the same moment the antagonist was added.
For the luciferase experiments not in HEK cells, the cells were additionally transfected with a TOPflash construct, eight TCF/LEF binding sites cloned into the pTA-Luc vector. Luciferase activity was measured using luciferase assay system (Promega, Madison Wis., USA).

[2] = tested on: Fzd-1 and -2; assay: Binding of rhodamine-labeled UM206 to frozen sections of mouse kidney and small intestine and its blocking
Experimental: Specificity of the binding site was confirmed by prior incubation of the tissue sections with UM207 (1.10^−7 M) or recombinant Wnt3a (1.10^−8 M).
One-half of the hearts of the mice was embedded in paraffin and cut in 4 μm sections. The paraffin sections were rehydrated and washed in PBS. One section was stained with AZAN, allowing an accurate determination of the infarct size. To visualize the myofibroblasts in the infarct area, the sections were incubated with an antibody directed against α-smooth muscle actin (Sigma-Aldrich), followed by incubation with the peroxidase-conjugated secondary antibody (Vector laboratories). Nuclei were visualized by hematoxylin. Photos were taken with a Leica (CTR500, 63×/0.85) camera and analyzed with the Quantimet program (QWin/QGo). An examiner blinded to the groups of the animals obtained all measurements. For the experiments with Rhodamine-labeled UM206, frozen sections (4 μm) of mouse kidney and small intestine were used.

[3] = target: T1, frizzled-1 (rFzd-1) (Rattus norvegicus, UniProt Q08463); assay: Activity assay: luciferase reporter in HEK superTOPflash cells transfected with frizzled-1; assay type: cell-based; details: for block of Wnt3a-induced luciferase activity, rFzd-1: peptide 1.10^−8 M
T1 construct: expressed in transfected cells; host or cells: HEK293 superTOPflash (transient, Fugene6, pcDNA3.1/hygro)
T1 sequence (Q08463 69-641): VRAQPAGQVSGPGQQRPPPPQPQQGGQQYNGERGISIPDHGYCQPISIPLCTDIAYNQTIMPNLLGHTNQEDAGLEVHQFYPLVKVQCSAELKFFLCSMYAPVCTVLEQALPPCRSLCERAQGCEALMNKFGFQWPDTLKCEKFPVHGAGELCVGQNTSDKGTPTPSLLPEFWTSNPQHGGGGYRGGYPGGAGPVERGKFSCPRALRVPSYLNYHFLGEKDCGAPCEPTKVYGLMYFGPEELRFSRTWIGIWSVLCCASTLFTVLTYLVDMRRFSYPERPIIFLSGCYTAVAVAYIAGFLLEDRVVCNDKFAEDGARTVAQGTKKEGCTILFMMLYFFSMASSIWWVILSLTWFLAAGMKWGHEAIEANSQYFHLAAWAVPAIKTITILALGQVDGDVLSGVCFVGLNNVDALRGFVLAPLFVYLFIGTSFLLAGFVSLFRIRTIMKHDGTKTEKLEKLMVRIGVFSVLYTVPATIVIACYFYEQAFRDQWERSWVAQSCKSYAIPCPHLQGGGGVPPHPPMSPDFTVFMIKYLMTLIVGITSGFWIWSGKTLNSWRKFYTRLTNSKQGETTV
Experimental: as §1, §2, §3, §4, §5, §6
(§8) To determine the inhibitory constant of UM206-8, HEK293-superTOPflash cells were transfected with either rFzd-1 or -2 and incubated with Wnt3a (10^−9M) in the presence of increasing concentrations of either of the peptides (FIG. 15). For UM206, a biphasic inhibition curve was observed that was best fitted with a two-binding-state model.
as §7

[4] = target: T2, frizzled-2 (rFzd-2) (Rattus norvegicus, UniProt Q08464); assay: Activity assay: luciferase reporter in HEK superTOPflash cells transfected with frizzled-2; assay type: cell-based; details: for block of Wnt3a-induced luciferase activity, rFzd-2: peptide 1.10^−8 M
T2 construct: expressed in transfected cells; host or cells: HEK293 superTOPflash (transient, Fugene6, pcDNA3.1/hygro)
T2 sequence (Q08464 29-570): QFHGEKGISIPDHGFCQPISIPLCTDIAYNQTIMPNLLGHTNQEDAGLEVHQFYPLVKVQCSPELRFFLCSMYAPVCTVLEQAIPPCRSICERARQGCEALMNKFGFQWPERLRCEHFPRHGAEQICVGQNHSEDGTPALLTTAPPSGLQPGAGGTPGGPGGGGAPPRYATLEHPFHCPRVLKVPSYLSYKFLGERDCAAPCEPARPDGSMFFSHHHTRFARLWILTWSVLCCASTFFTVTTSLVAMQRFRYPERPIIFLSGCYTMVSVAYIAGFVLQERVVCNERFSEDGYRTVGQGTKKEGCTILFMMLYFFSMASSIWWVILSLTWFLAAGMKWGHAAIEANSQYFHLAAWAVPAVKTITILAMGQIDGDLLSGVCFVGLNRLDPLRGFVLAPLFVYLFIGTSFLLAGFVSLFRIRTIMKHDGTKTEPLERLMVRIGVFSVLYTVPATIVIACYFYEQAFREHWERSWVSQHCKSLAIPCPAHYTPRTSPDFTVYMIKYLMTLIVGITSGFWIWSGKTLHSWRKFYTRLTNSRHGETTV
Experimental: as §1, §2, §3, §4, §5, §6, §8, §7

[5] = target: T3, hFzd-4 (Homo sapiens, UniProt Q9ULV1); assay: Receptor specificity: luciferase in HEK293 superTOPflash cells overexpressing hFzd-4; assay type: cell-based; details: FIG. 3, Panel F
T3 construct: expressed in transfected cells; host or cells: HEK293 superTOPflash (transient, Fugene6, pcDNA3.1/hygro)
T3 sequence (Q9ULV1 37-537): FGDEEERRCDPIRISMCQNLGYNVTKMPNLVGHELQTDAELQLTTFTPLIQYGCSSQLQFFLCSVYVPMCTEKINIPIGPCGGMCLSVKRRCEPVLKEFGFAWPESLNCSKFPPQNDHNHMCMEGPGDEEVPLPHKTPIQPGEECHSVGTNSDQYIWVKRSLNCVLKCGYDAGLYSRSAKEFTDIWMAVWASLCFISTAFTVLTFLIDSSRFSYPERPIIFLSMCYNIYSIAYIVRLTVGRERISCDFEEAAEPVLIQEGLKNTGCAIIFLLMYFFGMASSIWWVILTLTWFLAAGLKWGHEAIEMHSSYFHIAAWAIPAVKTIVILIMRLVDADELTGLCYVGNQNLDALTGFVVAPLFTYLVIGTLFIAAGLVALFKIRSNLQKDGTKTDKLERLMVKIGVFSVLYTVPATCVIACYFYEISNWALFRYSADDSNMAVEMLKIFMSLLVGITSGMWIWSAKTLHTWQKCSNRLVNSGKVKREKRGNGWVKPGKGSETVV
Experimental: In FIG. 3, Panel E, the efficacy of UM206 to block the Wnt3a-induced activation of luciferase activity in HEK293 superTOPflash cells transfected with different Fzds is shown.
as §7

Molecule: UM206-rhodamine: UM206 with rhodamine attached to Lys^3 (Ac-CNK(rhodamine)TSEGMDGCEL-NH2; cysteine pairing not given here; reading uncertain)
- effect of rhodamine attachment to Lys^3 on IC50 for blocking Wnt3a-induced luciferase expression ([1]; HEK293 superTOPflash cells, not shown): did not affect its IC50 value
- staining of tissue sections ([2]; 1.10^−8 M, 15 minutes, two-foton microscopy): staining of tubular epithelium and panneth cells

Molecule: CC(=O)NCC(=O)N[C@@H](CO)C(=O)N[C@@H](CS)C(=O)N[C@@H](CO)C(=O)N[C@@H](CC(C)C)C(=O)N[C@@H](CCCCN)C(=O)N[C@H](C(=O)N[C@@H](CS)C(=O)N[C@@H](Cc1c[nH]c2ccccc12)C(=O)N[C@@H](CC(C)C)C(=O)N[C@@H](CCC(N)=O)C(=O)N[C@@H](CC(C)C)C(=O)N[C@@H](C)C(=O)N[C@@H](CC(=O)O)C(N)=O)[C@@H](C)O [UM208, GSCSLKTCWLQLAD] (Ac-GSCSLKTCWLQLAD-NH2)
- effect of the peptide by itself on luciferase activity [1]: none of the three peptides by itself could induce an increase in luciferase activity
- block of Wnt3a-induced luciferase activity, rFzd-1 [3]: blocked almost completely
- block of Wnt3a-induced luciferase activity, rFzd-2 [4]: blocked almost completely

Molecule: CNVSSHGIDGCDL (listed as Homo sapiens) [peptide derived from the area of Wnt3a homologous to UM206]
- antagonistic properties of UM206 analogues ([1]; alanine scan and modifications, 1.10-9 M): potency was lower than that of UM206

Molecule: CSCC[C@@H]1NC(=O)CNC(=O)[C@H](CCC(=O)O)NC(=O)[C@H](CO)NC(=O)[C@H]([C@@H](C)O)NC(=O)[C@H](CCCCN)NC(=O)[C@H](CC(N)=O)NC(=O)[C@@H](NC(C)=O)CSSC[C@@H](C(=O)N[C@@H](CCC(=O)O)C(=O)N[C@@H](CC(C)C)C(N)=O)NC(=O)CNC(=O)[C@H](CC(=O)O)NC1=O [UM206(S-S)] (Ac-CNKTSEGMDGCEL-NH2; disulfide 1-11)
- activity on the frizzled receptor: antagonist or agonist [1]: potent agonist
- agonist activity at frizzled-1 ([3]; FIG. 3, Panel F): specific agonist
- agonist activity at frizzled-2 ([4]; FIG. 3, Panel F): specific agonist
- agonist activity at frizzled-4 [5]: not for frizzled-4 or frizzled-5

Molecule: CC[C@H](C)[C@H](NC(=O)CNC(C)=O)C(=O)N[C@@H](CCCCN)C(=O)N[C@@H](CCC(=O)O)C(=O)N[C@@H](CS)C(=O)N[C@@H](CCC(N)=O)C(=O)N[C@@H](Cc1ccc(O)cc1)C(=O)N[C@@H](CCC(N)=O)C(=O)N[C@@H](Cc1ccccc1)C(=O)N[C@@H](CCCNC(=N)N)C(=O)N[C@@H](Cc1c[nH]cn1)C(=O)N[C@@H](CCCNC(=N)N)C(=O)N[C@@H](CCCNC(=N)N)C(=O)N[C@@H](Cc1c[nH]c2ccccc12)C(=O)N[C@@H](CC(N)=O)C(=O)N[C@@H](CS)C(=O)N[C@@H](CO)C(=O)N[C@H](C(=O)N[C@H](C(=O)N[C@@H](CC(=O)O)C(N)=O)C(C)C)[C@@H](C)O [UM207] (Ac-GIKECQYQFRHRRWNCSTVD-NH2)
- activity on the frizzled receptor: antagonist or agonist [1]: potent antagonist
- effect of the peptide by itself on luciferase activity [1]: none of the three peptides by itself could induce an increase in luciferase activity
- block of Wnt3a-induced luciferase activity, rFzd-1 [3]: blocked almost completely
- block of Wnt3a-induced luciferase activity, rFzd-2 [4]: blocked almost completely
- blocking of UM206-rhodamine binding by prior incubation ([2]; UM206-rhodamine 1.10^−8 M, UM207 1.10^−7 M, Wnt3a 1.10^−8 M): completely abolished the binding of UM206-rhodamine
